Patent US20250034216A1, “STEREOSELECTIVE COVALENT LIGANDS FOR ONCOGENIC AND IMMUNOLOGICAL PROTEINS” (The Scripps Research Institute, priority 2021, published 2025)

Legend:
Assay in all cases: IA-DTB cysteine engagement
Assay type in all cases: binding
CDKAL1_C556 = target: T1, CDKAL1_C556 (Homo sapiens, UniProt Q5VV42); conditions: 22Rv1 cells, relative to DMSO; for % engagement CDKAL1_556: 5 μM probe, 1 h (FIG. 5B); for % engagement CDKAL1_C556: 20 μM probe, 1 h
T1 construct: endogenous in cells; host or cells: 22Rv1
T1 sequence (Q5VV42 1-579): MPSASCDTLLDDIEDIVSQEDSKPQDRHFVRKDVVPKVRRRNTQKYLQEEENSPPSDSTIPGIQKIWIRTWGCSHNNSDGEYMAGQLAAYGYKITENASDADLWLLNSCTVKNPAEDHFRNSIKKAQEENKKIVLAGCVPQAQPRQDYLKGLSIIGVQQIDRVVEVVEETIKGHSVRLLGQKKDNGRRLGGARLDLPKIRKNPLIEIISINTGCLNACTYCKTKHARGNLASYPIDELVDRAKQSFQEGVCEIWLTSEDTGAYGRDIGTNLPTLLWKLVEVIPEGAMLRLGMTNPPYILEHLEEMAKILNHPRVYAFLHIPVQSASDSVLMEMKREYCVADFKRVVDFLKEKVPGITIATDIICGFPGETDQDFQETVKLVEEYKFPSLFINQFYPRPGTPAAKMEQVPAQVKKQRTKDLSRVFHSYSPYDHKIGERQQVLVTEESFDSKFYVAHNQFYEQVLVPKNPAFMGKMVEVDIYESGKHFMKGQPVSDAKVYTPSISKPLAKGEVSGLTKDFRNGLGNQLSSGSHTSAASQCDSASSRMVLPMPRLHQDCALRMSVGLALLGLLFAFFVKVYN
How it was run: (§1)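 Cells were treated in situ with electrophilic probes, then lysed, and the lysates (2 mg/mL protein) were labeled with IA-DTB for 1 h at ambient temperature. After reduction, alkylation and trypsin digestion, labeled peptides were streptavidin-enriched, TMT-labeled and fractionated. Engagement ratios are probe vs DMSO reporter intensities, averaged across replicates.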

APOOL_C79 = target: T2, APOOL_C79 (Homo sapiens, UniProt Q6UXV4); conditions: 22Rv1 cells, 20 μM probe, 1 h, relative to DMSO
T2 construct: endogenous in cells; host or cells: 22Rv1
T2 sequence (Q6UXV4 28-268): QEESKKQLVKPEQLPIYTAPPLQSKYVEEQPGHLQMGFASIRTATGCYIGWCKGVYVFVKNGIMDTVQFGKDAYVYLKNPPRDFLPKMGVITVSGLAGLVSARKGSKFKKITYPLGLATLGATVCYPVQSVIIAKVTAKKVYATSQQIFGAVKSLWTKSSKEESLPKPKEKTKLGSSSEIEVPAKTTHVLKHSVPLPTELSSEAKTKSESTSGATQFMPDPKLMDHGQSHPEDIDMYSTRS
How it was run: as §1

CDKN2AIP_C516 = target: T3, CDKN2AIP_C516 (Homo sapiens, UniProt Q9NXV6); conditions: 22Rv1 cells, 20 μM probe, 1 h, relative to DMSO
T3 construct: endogenous in cells; host or cells: 22Rv1
T3 sequence (Q9NXV6 1-580): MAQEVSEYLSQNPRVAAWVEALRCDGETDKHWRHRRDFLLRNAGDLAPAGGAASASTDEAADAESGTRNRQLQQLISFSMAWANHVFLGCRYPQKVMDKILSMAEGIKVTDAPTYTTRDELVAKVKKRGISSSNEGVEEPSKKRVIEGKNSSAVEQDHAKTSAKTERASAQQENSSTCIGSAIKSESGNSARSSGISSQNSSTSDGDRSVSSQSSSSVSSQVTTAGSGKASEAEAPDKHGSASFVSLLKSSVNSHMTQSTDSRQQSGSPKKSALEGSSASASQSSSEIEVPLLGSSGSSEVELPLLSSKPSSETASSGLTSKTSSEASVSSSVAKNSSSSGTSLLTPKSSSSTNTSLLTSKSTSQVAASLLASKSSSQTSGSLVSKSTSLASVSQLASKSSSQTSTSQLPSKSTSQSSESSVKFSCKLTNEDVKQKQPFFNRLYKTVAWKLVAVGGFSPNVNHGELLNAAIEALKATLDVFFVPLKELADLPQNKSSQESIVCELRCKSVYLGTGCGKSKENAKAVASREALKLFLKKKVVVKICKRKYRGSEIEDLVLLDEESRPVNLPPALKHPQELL
How it was run: as §1

SMILES | % engagement CDKAL1_556 (CDKAL1_C556) [%] | % engagement APOOL_C79 (APOOL_C79) [%] | % engagement CDKAL1_C556 (CDKAL1_C556) [%] | % engagement CDKN2AIP_C516 (CDKN2AIP_C516) [%]
CC#CC(=O)N1C[C@H](c2ccc(Br)cc2)[C@@H]1C(=O)Nc1cccc2cccnc12 [MY-45B, (2R,3S)-3-(4-bromophenyl)-1-(but-2-ynoyl)-N-(quinolin-8-yl)azetidine-2-carboxamide] | 67.00 | – | – | –
C=CC(=O)N1C[C@H](c2ccc(Br)cc2)[C@H]1C(=O)Nc1cccc2cccnc12 [MY-3A, (2S,3S)-1-acryloyl-3-(4-bromophenyl)-N-(quinolin-8-yl)azetidine-2-carboxamide] | – | 48 | 88.5 | 12.75
C=CC(=O)N1C[C@H](c2ccc(Br)cc2)[C@@H]1C(=O)Nc1cccc2cccnc12 [MY-1B, (2R,3S)-1-acryloyl-3-(4-bromophenyl)-N-(quinolin-8-yl)azetidine-2-carboxamide] | 79.33 | 73 | 91 | 24

Next, values leading:

% engagement CDKAL1_556 (CDKAL1_C556) [%] | % engagement APOOL_C79 (APOOL_C79) [%] | % engagement CDKAL1_C556 (CDKAL1_C556) [%] | % engagement CDKN2AIP_C516 (CDKN2AIP_C516) [%] | SMILES
– | 69 | 89 | 18.75 | C=CC(=O)N1C[C@H](c2ccc(Br)cc2)[C@H]1C(=O)Nc1cccc2cccnc12 [MY-3B, (2S,3S)-1-acryloyl-3-(4-bromophenyl)-N-(quinolin-8-yl)azetidine-2-carboxamide]
– | 54.25 | 59.5 | 66.5 | C=CC(=O)N1C[C@@H](c2ccc(Br)cc2)[C@H]1C(=O)Nc1cccc2cccnc12 [MY-1A, (2S,3R)-1-acryloyl-3-(4-bromophenyl)-N-(quinolin-8-yl)azetidine-2-carboxamide]
